# Reference: US20080072338A1, “Animal for Drug Efficacy Evaluation, Method for Developing Chronic Obstructive Pulmonary Disease in Animal for Drug Efficacy Evaluation, and Method for Evaluating Drug Efficacy Using the Animal” (priority 2004, published 2008)
# Tested on: chronic obstructive pulmonary disease-model animal
# Assay: Drug efficacy evaluation in the chronic obstructive pulmonary disease-model animal (change of respiratory function)
# [1] = 10 mg/kg orally 1 hour before cigarette solution and LPS solution, guinea-pig, average values of 6 animals
smiles,measurement,setting,value
"Cn1c(=O)c2[nH]cnc2n(C)c1=O [Theophylline, theophylline]",Peak expiratory flow,[1],19.0 mL/s
same,Respiratory minute rate,[1],124 breaths/min
same,Respiratory minute volume,[1],457 mL/min
same,Tidal volume,[1],3.7 mL
same,Effect on respiration function (in words),"10 mg/kg orally, COPD-model guinea-pig",improvement effect of respiration function
